Drawing on US12006321B2, “Substituted pyrazolo[1,5-a]pyrimidines as apelin receptor agonists” (Sanford Burnham Prebys Medical Discovery Institute, priority 2017, dated 2024), this text covers EC50 for 32 molecules.

The target in the assay is T1, human apelin receptor (APJ, APLNR) (Homo sapiens, UniProt P35414).
T1 construct: host or cells: Chinese hamster ovary (CHO) cells, stably integrated receptor
T1 sequence (P35414 1-380): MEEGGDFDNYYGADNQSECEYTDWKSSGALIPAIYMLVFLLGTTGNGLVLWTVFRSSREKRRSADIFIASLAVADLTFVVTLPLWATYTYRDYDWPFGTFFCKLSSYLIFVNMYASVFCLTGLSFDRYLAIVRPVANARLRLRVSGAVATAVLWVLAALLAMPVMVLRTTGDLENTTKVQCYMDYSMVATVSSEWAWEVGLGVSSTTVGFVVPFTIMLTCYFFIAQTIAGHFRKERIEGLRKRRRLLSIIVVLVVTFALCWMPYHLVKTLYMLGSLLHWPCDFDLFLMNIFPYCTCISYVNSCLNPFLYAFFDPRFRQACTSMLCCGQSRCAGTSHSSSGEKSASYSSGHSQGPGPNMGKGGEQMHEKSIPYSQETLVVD
In words: cell-based cAMP assay (TR-FRET) in Chinese hamster ovary cells expressing the apelin receptor. The note with it: EC50 = 50% of control (apelin-13, 1 nM) response; cAMP in CHO cells, 0.5 h incubation; read-out: Potency Category. In a few lines: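 CHO cells stably expressing human APJ were forskolin-stimulated, then exposed to compound (0.0-100 μM, ≤1% DMSO) for 0.5 h. Lysate cAMP read by competitive TR-FRET immunoassay; EC50 and efficacy expressed relative to 1 nM apelin-13, four-parameter fit over ≥10 concentrations.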
A general note: cAMP levels reflect the balance of adenylyl cyclase and phosphodiesterase activity.

As to `Cc1cccc(C)c1-c1c(C)nn2c(C(C)C)cc(C(=O)NO)nc12` [Compound 75, 3-(2,6-dimethylphenyl)-2-methyl-7-(methylethyl)-8-hydropyrazolo[1,5-a]pyrimidine-5-carbohydroxamic acid], the EC50 lay in the range of 100 to 200 nM.

`COc1cccc(C)c1-c1c(C)nn2c(C(C)C)cc(C(=O)O)nc12` [Compound 76, 3-(2-methoxy-6-methylphenyl)-2-methyl-7-(methylethyl)-8-hydropyrazolo[1,5-a]pyrimidine-5-carboxylic acid]: the EC50 was over 500 nM.

`CCOC(=O)c1cccc(C)c1-c1c(C)nn2c(C(C)C)cc(C(=O)O)nc12` [Compound 77, 3-[6-(ethoxycarbonyl)-2-methylphenyl]-2-methyl-7-(methylethyl)-8-hydropyrazolo[1,5-a]pyrimidine-5-carboxylic acid]: the EC50 is 100 to 200 nM.

In the case of `CCOC(=O)c1cc(C(C)C)n2nc(-c3ccccc3)c(-c3c(C)cccc3C)c2n1` [Compound 78, ethyl 3-(2,6-dimethylphenyl)-7-(methylethyl)-2-phenyl-8-hydropyrazolo[1,5-a]pyrimidine-5-carboxylate], the EC50 is over 500 nM.

For `Cc1cccc(C)c1-c1c(-c2ccccc2)nn2c(C(C)C)cc(C(=O)O)nc12` [Compound 79, 3-(2,6-dimethylphenyl)-7-(methylethyl)-2-phenyl-8-hydropyrazolo[1,5-a]pyrimidine-5-carboxylic acid], the EC50 was over 500 nM.

As for `Cc1cccc(C)c1-c1c(C(C)C)nn2c(C(C)C)cc(C(=O)O)nc12` [Compound 80, 2,7-bis(methylethyl)-3-(2,6-dimethylphenyl)-8-hydropyrazolo[1,5-a]pyrimidine-5-carboxylic acid], the EC50 was over 500 nM.

Regarding `Cc1cccc(C)c1-c1c(C2CCC2)nn2c(C(C)C)cc(C(=O)O)nc12` [Compound 81, 3-(2,6-dimethylphenyl)-2-cyclobutyl-7-(methylethyl)-8-hydropyrazolo[1,5-a]pyrimidine-5-carboxylic acid], the EC50 was over 500 nM.

Consider `CCOC(=O)c1cc(-c2ccccc2)n2nc(C)c(-c3c(C)cccc3C)c2n1` [Compound 82, ethyl 3-(2,6-dimethylphenyl)-2-methyl-7-phenyl-8-hydropyrazolo[1,5-a]pyrimidine-5-carboxylate], for which the EC50 is over 500 nM.

Regarding `Cc1cccc(C)c1-c1c(C)nn2c(-c3ccccc3)cc(C(=O)O)nc12` [Compound 83, 3-(2,6-dimethylphenyl)-2-methyl-7-phenyl-8-hydropyrazolo[1,5-a]pyrimidine-5-carboxylic acid], the EC50 is over 500 nM.

Regarding `Cc1cccc(C)c1-c1c(C2CC2)nn2c(C(C)C)cc(C(=O)O)nc12` [Compound 84, 3-(2,6-dimethylphenyl)-2-cyclopropyl-7-(methylethyl)-8-hydropyrazolo[1,5-a]pyrimidine-5-carboxylic acid], the EC50 is over 500 nM.

With `Cc1cccc(C(=O)O)c1-c1c(C)nn2c(C(C)C)cc(C(=O)O)nc12` [Compound 85, 3-(2-carboxy-6-methylphenyl)-2-methyl-7-(methylethyl)-8-hydropyrazolo[1,5-a]pyrimidine-5-carboxylic acid], the EC50 is over 500 nM.

Take `CCOC(=O)c1cc(C(C)C)n2nc(CO)c(-c3c(C)cccc3C)c2n1` [Compound 86, ethyl 3-(2,6-dimethylphenyl)-2-(hydroxymethyl)-7-(methylethyl)-8-hydropyrazolo[1,5-a]pyrimidine-5-carboxylate]: the EC50 is over 500 nM.

Consider `Cc1cccc(C)c1-c1c(CO)nn2c(C(C)C)cc(C(=O)O)nc12` [Compound 87, 3-(2,6-dimethylphenyl)-2-(hydroxymethyl)-7-(methylethyl)-8-hydropyrazolo[1,5-a]pyrimidine-5-carboxylic acid], for which the EC50 is over 500 nM.

On to `COCc1nn2c(C(C)C)cc(C(=O)OC)nc2c1-c1c(C)cccc1C` [Compound 88, methyl 3-(2,6-dimethylphenyl)-2-(methoxymethyl)-7-(methylethyl)-8-hydropyrazolo[1,5-a]pyrimidine-5-carboxylate], for which the EC50 is over 500 nM.

With `COCc1nn2c(C(C)C)cc(C(=O)O)nc2c1-c1c(C)cccc1C` [Compound 89, 3-(2,6-dimethylphenyl)-2-(methoxymethyl)-7-(methylethyl)-8-hydropyrazolo[1,5-a]pyrimidine-5-carboxylic acid], the EC50 was over 500 nM.

In the case of `Cc1cccc(C)c1-c1c(CN(C)C)nn2c(C(C)C)cc(C(=O)O)nc12` [Compound 90, 2-[(dimethylamino)methyl]-3-(2,6-dimethylphenyl)-7-(methylethyl)-8-hydropyrazolo[1,5-a]pyrimidine-5-carboxylic acid], the EC50 is over 500 nM.

Regarding `CCOC(=O)c1cc(C(C)C)n2nc(C)c(-c3c(F)cccc3OC)c2n1` [Compound 91, ethyl 3-(6-fluoro-2-methoxyphenyl)-2-methyl-7-(methylethyl)-8-hydropyrazolo[1,5-a]pyrimidine-5-carboxylate], the EC50 is over 500 nM.

With `COc1cccc(F)c1-c1c(C)nn2c(C(C)C)cc(C(=O)O)nc12` [Compound 92, 3-(6-fluoro-2-methoxyphenyl)-2-methyl-7-(methylethyl)-8-hydropyrazolo[1,5-a]pyrimidine-5-carboxylic acid], the EC50 was over 500 nM.

In the case of `Cc1cccc(Cl)c1-c1c(C)nn2c(C(C)C)cc(C(=O)O)nc12` [Compound 93, 3-(6-chloro-2-methylphenyl)-2-methyl-7-(methylethyl)-8-hydropyrazolo[1,5-a]pyrimidine-5-carboxylic acid], the EC50 was in the range of 200 to 500 nM.

Consider `CCOC(=O)c1cc(C(C)C)n2nc(C)c(-c3c(C)cccc3Cl)c2n1` [Compound 94, ethyl 3-(6-chloro-2-methylphenyl)-2-methyl-7-(methylethyl)-8-hydropyrazolo[1,5-a]pyrimidine-5-carboxylate], for which the EC50 is over 500 nM.

With `COC(=O)c1cc(C(C)C)n2nc(C(=O)OC)c(-c3c(C)cccc3C)c2n1` [Compound 95, methyl 3-(2,6-dimethylphenyl)-2-(methoxycarbonyl)-7-(methylethyl)-8-hydropyrazolo[1,5-a]pyrimidine-5-carboxylate], the EC50 was over 500 nM.

`Cc1cccc(C)c1-c1c(C(=O)O)nn2c(C(C)C)cc(C(=O)O)nc12` [Compound 96, 3-(2,6-dimethylphenyl)-7-(methylethyl)-8-hydropyrazolo[1,5-a]pyrimidine-2,5-dicarboxylic acid]: the EC50 is over 500 nM.

For the molecule `CCOC(=O)c1cc(N2CCOCC2)n2nc(C)c(-c3c(C)cccc3C)c2n1` [Compound 97, ethyl 3-(2,6-dimethylphenyl)-2-methyl-7-morpholin-4-yl-8-hydropyrazolo[1,5-a]pyrimidine-5-carboxylate], the EC50 was over 500 nM.

Regarding `Cc1cccc(C)c1-c1c(C)nn2c(N3CCOCC3)cc(C(=O)O)nc12` [Compound 98, 3-(2,6-dimethylphenyl)-2-methyl-7-morpholin-4-yl-8-hydropyrazolo[1,5-a]pyrimidine-5-carboxylic acid], the EC50 is over 500 nM.

Take `COc1cc(C(=O)O)nc2c(-c3c(C)cccc3C)c(C)nn12` [Compound 99, 3-(2,6-dimethylphenyl)-7-methoxy-2-methyl-8-hydropyrazolo[1,5-a]pyrimidine-5-carboxylic acid]: the EC50 is over 500 nM.

Turning to `CCOC(=O)c1cc(C(C)C)n2nc(C(=O)N(C)C)c(-c3c(C)cccc3C)c2n1` [Compound 100, ethyl 2-(N,N-dimethylcarbamoyl)-3-(2,6-dimethylphenyl)-7-(methylethyl)-8-hydropyrazolo[1,5-a]pyrimidine-5-carboxylate], the EC50 was over 500 nM.

Consider `Cc1cccc(C)c1-c1c(C(=O)N(C)C)nn2c(C(C)C)cc(C(=O)O)nc12` [Compound 101, 2-(N,N-dimethylcarbamoyl)-3-(2,6-dimethylphenyl)-7-(methylethyl)-8-hydropyrazolo[1,5-a]pyrimidine-5-carboxylic acid], for which the EC50 was over 500 nM.

With `CNc1cc(C(=O)O)nc2c(-c3c(C)cccc3C)c(C)nn12` [Compound 102, 3-(2,6-dimethylphenyl)-2-methyl-7-(methylamino)-8-hydropyrazolo[1,5-a]pyrimidine-5-carboxylic acid], the EC50 was over 500 nM.

For `Cc1cccc(C)c1-c1c(C)nn2c(N(C)C)cc(C(=O)O)nc12` [Compound 103, 7-(dimethylamino)-3-(2,6-dimethylphenyl)-2-methyl-8-hydropyrazolo[1,5-a]pyrimidine-5-carboxylic acid], the EC50 is over 500 nM.

On to `Cc1nn2c(C(C)C)cc(C(=O)O)nc2c1-c1c(F)cccc1F` [Compound 104, 3-(2,6-difluorophenyl)-2-methyl-7-(methylethyl)-8-hydropyrazolo[1,5-a]pyrimidine-5-carboxylic acid], for which the EC50 was over 500 nM.

For `CCOC(=O)c1cc(C(C)C)n2nc(C)c(-c3c(F)cccc3F)c2n1` [Compound 105, ethyl 3-(2,6-difluorophenyl)-2-methyl-7-(methylethyl)-8-hydropyrazolo[1,5-a]pyrimidine-5-carboxylate], the EC50 was over 500 nM.

Take `Cc1cccc(C)c1-c1c(C)nn2c(N3CCN(C)CC3)cc(C(=O)O)nc12` [Compound 106, 3-(2,6-dimethylphenyl)-2-methyl-7-(4-methylpiperazinyl)-8-hydropyrazolo[1,5-a]pyrimidine-5-carboxylic acid]: the EC50 was over 500 nM.
